Test results published in patent US20250282764A1, “IMIDAZOLE HETEROCYCLE BASED COMPOUNDS AND METHODS OF TREATING CANCER” (King Abdulaziz University, priority 2024, published 2025).
Entries after “also recorded” stand apart in the source; their conditions may differ. Read-outs that look alike come from different tables or passages of the source.

Assays:
[1] = test system: NB4; assay: Annexin V/7AAD apoptosis assay, NB4; assay type: cell-based, human; conditions: approximately 2×IC50, 48 h
Protocol: (§1) Apoptosis assay for leukemia cells was performed as follows. Cells were cultured in 6-well plates at a density of 3× 10^5 cells per well and treated with approximately 2×IC50 values of compound (Id) for 48 h. The experiments were performed in duplicates. To measure apoptosis, Annexin V APC and 7AAD staining (BD Biosciences, San Jose, CA, USA) was performed according to the manufacturer's recommendations, and 10,000 events were acquired using a FACSCanto flow cytometer (BD Biosciences, San Jose, CA, USA).

[2] = biological target: T1, CYP2D6 (Homo sapiens, UniProt P10635); assay: CYP450 2D6 inhibition; assay type: in vitro ADME; conditions: recombinant CYP2D6 expressed in insect supersomes, probe 3-[2-(N,N-diethylamino)ethyl]-7-methoxy-4-methylcoumarin, expressed enzyme, fluorescent substrate
T1 construct: purchased Fisher Scientific, Waltham, MA; host or cells: insect cells (supersomes)
Protocol: (§2) The compound (Id) was assessed for its ability to inhibit the three major human CYP450 enzymes, 3A4, 2D6 and 2C9. Assays were run in triplicate. Expressed enzymes in insect supersomes (Fisher Scientific, Waltham, MA) were used to minimize non-specific binding and membrane partitioning issues. The 3A4 assay uses testosterone as a substrate and analysis was performed by LC/MS/MS on a Waters Xevo TQ instrument as described above using positive electrospray ionization. Assay acceptance criteria was 20% for all standards and 25% for the LLOQ. The 2D6 and 2C9 assays use fluorescent substrates (3-[2-(N,N-diethylamino)ethyl]-7-methoxy-4-methylcoumarin for 2D6; 7-methoxy-4-(trifluoromethyl) coumarin for 2C9) and were analyzed on an Envision plate reader. GraphPad® Prism v 5.04 was used for nonlinear fitting of data to generate IC50 values.

[3] = biological target: T2, CYP3A4 (Homo sapiens, UniProt P08684); assay: CYP450 3A4 inhibition; assay type: in vitro ADME; conditions: recombinant CYP3A4 expressed in insect supersomes, probe testosterone, expressed enzyme, testosterone substrate
T2 construct: purchased Fisher Scientific, Waltham, MA; host or cells: insect cells (supersomes)
Protocol: as §2

[4] = test system: Kasumi-1; assay: Annexin V/7AAD apoptosis assay, Kasumi-1; assay type: cell-based, human; conditions: approximately 2×IC50, 48 h
Protocol: as §1

[5] = test system: KG1α; assay: Annexin V/7AAD apoptosis assay, KG1α; assay type: cell-based, human; conditions: approximately 2×IC50, 48 h
Protocol: as §1

[6] = test system: DLD1; assay: Annexin V apoptosis assay (flow cytometry), DLD1; assay type: cell-based, human; conditions: IC50 and 2×IC50, 48 h, vs basal conditions; dose dependent
Protocol: (§3) Apoptosis assay for colorectal carcinoma cell lines model was performed as follows. Cells were cultured in T25 culture flasks at a density of 3×10^5 cells for DLD-1, 4×10^5 cells for HCT116, and 5×10^5 cells for HT29 cells and treated with IC50 and 2×IC50 of compound (Id) for 48 h. The experiments were performed in triplicates. To measure apoptosis, an Annexin V APC staining assay (BD Biosciences, San Jose, CA, USA) was performed according to the manufacturer's recommendations, and 10,000 events were acquired using a FACSAria III flow cytometer (BD Biosciences, San Jose, CA, USA).

[7] = biological target: T3, CYP2C9 (Homo sapiens, UniProt P11712); assay: CYP450 2C9 inhibition; assay type: in vitro ADME; conditions: recombinant CYP2C9 expressed in insect supersomes, probe 7-methoxy-4-(trifluoromethyl) coumarin, expressed enzyme, fluorescent substrate
T3 construct: purchased Fisher Scientific, Waltham, MA; host or cells: insect cells (supersomes)
Protocol: as §2

[8] = test system: HCT116; assay: Annexin V apoptosis assay (flow cytometry), HCT116; assay type: cell-based, human; conditions: IC50 and 2×IC50, 48 h, vs basal conditions; dose dependent
Protocol: as §3

[9] = test system: K562; assay: Annexin V/7AAD apoptosis assay, K562; assay type: cell-based, human; conditions: approximately 2×IC50, 48 h
Protocol: as §1

[10] = test system: MV4-11; assay: Annexin V/7AAD apoptosis assay, MV4-11; assay type: cell-based, human; conditions: approximately 2×IC50, 48 h
Protocol: as §1

[11] = test system: HT29; assay: Annexin V apoptosis assay (flow cytometry), HT29; assay type: cell-based, human; conditions: IC50 and 2×IC50, 48 h, vs basal conditions; dose dependent
Protocol: as §3

[12] = test system: HL60; assay: Annexin V/7AAD apoptosis assay, HL60; assay type: cell-based, human; conditions: approximately 2×IC50, 48 h
Protocol: as §1

[13] = Stability in mouse liver microsomes; assay type: in vitro ADME
Protocol: The clearance of compound (Id) in mouse or human liver microsomes was determined at 37° C. Both mouse and human liver microsomes were obtained from Merck KGaA, (Darmstadt, Germany), Cat. No. M9441 (Mouse liver microsomes) and M0317 (Human liver microsomes). Assays were conducted in triplicate in 96-deep well polypropylene plates. […] At five time points, reaction mixture aliquots were transferred to 96-shallow well stop plates on ice containing acetonitrile with 0.1 μM propafenone. […] Standard curves for test compounds were generated using 5 concentrations in triplicate that were processed as above but with zero incubation time. Stop plates were centrifuged at 2000 g for 10 min and then supernatant aliquots were transferred to a Waters Aquity® UPLC 700 μL 96-well sample plate with cap mat (Waters, Milford, MA). The amount of compound remaining in the supernatant was quantified by LC/MS/MS using a Waters Xevo TQ MS (electrospray positive mode) coupled to a Waters Aquity® UPLC (BEH column, C18). Propafenone was used as the internal standard. GraphPad® Prism v 5.04 was used for nonlinear fitting of time course data to generate t1/2 values.

[14] = previous study profiling; cited from earlier work
[15] = test system: MCF7 breast cancer; conditions: previous study (Khayat et al.); cited from earlier work
[16] = test system: NB4, HL60, and KG1a leukemia cell lines; conditions: previous study (Khayat et al.); range over three lines; cited from earlier work
[17] = test system: CYP450 metabolizing enzymes (3A4, 2D6, and 2C9); conditions: previous study; cited from earlier work
[18] = test system: PC3 prostate cancer; conditions: previous study (Khayat et al.); cited from earlier work
[19] = test system: cell cycle; conditions: concentration of 1 μM; previous study; cited from earlier work
[20] = test system: HCT116 CRC cells; conditions: previous study (Khayat et al.); cited from earlier work
[21] = test system: caspase-3; conditions: concentration of 1 μM; previous study; cited from earlier work

T1 sequence (P10635 whole entry): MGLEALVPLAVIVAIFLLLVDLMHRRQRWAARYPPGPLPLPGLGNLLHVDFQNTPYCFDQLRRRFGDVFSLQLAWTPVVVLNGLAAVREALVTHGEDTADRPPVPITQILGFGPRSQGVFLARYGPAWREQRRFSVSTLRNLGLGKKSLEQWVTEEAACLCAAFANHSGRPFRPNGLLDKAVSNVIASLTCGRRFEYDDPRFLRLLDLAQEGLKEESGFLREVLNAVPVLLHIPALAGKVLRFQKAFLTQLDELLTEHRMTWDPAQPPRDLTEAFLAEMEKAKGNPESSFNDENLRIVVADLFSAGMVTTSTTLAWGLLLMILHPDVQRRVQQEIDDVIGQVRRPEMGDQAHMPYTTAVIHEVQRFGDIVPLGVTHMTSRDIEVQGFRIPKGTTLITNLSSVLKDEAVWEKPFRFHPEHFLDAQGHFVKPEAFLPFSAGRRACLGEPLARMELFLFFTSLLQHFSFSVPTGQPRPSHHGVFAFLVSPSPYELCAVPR
T2 sequence (P08684 whole entry): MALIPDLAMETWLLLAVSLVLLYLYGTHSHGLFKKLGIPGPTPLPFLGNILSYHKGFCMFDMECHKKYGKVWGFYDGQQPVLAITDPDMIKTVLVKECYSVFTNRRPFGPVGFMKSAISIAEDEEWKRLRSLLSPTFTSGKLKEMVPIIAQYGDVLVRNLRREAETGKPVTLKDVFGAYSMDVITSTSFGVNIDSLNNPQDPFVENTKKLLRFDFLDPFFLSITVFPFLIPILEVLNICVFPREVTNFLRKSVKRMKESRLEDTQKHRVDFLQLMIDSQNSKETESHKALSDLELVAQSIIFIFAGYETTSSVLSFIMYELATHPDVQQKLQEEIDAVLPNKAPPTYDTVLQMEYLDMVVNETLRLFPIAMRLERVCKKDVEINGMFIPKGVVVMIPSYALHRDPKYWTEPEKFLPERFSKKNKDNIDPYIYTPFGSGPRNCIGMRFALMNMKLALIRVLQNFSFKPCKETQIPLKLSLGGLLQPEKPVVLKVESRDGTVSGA
T3 sequence (P11712 whole entry): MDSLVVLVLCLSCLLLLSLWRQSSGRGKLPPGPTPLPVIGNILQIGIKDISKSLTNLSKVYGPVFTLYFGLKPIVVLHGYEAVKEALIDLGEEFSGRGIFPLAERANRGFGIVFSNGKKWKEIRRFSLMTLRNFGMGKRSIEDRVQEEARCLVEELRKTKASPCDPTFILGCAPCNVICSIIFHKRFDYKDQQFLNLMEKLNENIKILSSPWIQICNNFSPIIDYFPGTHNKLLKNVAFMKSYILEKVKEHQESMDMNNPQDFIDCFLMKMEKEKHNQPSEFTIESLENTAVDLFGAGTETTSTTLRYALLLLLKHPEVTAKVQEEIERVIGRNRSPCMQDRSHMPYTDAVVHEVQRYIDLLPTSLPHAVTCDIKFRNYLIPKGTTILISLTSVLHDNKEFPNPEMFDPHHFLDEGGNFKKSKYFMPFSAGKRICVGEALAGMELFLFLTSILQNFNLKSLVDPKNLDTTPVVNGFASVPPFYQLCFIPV

## CC1=N/C(=C\c2ccc(C)o2)C(=O)N1c1ccc(CC(=O)NCc2ccccc2)cc1 [Compound (Id), 2-Methyl-4-(5-methyl-2-furyl)methylene-1-[4-(benzylaminocarbonylmethyl)phenyl]-5-oxo-1H-imidazole]
[1]
  apoptosis in NB4 cells: strong apoptosis
[2]
  IC50: > 10 µM
[3]
  IC50: > 10 µM
[4]
  apoptosis in Kasumi-1 cells: strong apoptosis; also recorded: very strong induction of apoptosis
[5]
  apoptosis in KG1α cells: strong apoptosis
[6]
  apoptosis in DLD1 cells: increased apoptosis
[7]
  IC50: > 10 µM
[8]
  apoptosis in HCT116 cells: increased apoptosis
[9]
  apoptosis in K562 cells: strong apoptosis
[10]
  apoptosis in MV4-11 cells: strong apoptosis
[11]
  apoptosis in HT29 cells: increased apoptosis
[12]
  apoptosis in HL60 cells: strong apoptosis
[13]; male, CD-1, mouse liver microsomes, in presence of NADPH, 37° C., read-out: Stability MLM t1/2
  half-life: 16.6 min
[13]; without NADPH, percent remaining after 60 min incubation
  Mic. Ctrl. Mouse % @60 min: 90%
[13]; without NADPH, percent remaining after 60 min incubation, listed as compound (Id)
  Mic. Ctrl. Mouse % @60 min: did not change

## COc1ccc(/C=C2\N=C(C)N(c3ccc(CC(=O)NCc4ccccc4)cc3)C2=O)cc1 [KIM-161, reference compound]
[14]
  maximum aqueous solubility: 19.9 µM
[15]
  IC50: 1140 nM
[16]
  IC50: 275 to 893 nM
[17]
  substrate for major CYP450 metabolizing enzymes (3A4, 2D6, and 2C9): not a substrate
[18]
  IC50: 2140 nM
[19]
  effect on cell cycle: cell cycle arrest at pre-G and G2/M phases
[20]
  IC50: 294 nM
[21]
  apoptosis: promoted apoptosis through activation of caspase-3
[13]
  Mic. Ctrl. Mouse % @60 min: 112%
[13]; mouse liver microsomes, in presence of NADPH, 37° C.
  Stability MLM t1/2: 14.8 min
